Laboratory results: a melting point compilation (Tetko et al.)

SMILES	melting point
O=C(O)c1cc2cc([N+](=O)[O-])ccc2oc1=O	200 °C
CC1(C)CCC(O)CC1	28 to 30 °C
O=C(O)CS(=O)(=O)CC(=O)O	182 °C
CCC1=C(C=NNc2ccc([N+](=O)[O-])cc2[N+](=O)[O-])CCCC1	192 to 194 °C
CCOC(=O)c1cc(C)n(C)n1	87 °C
O=C(O)c1csnn1	233 to 235 °C
CCCS(=O)CCC	22.5 °C
O=Cc1c([N+](=O)[O-])cccc1[N+](=O)[O-]	119 °C
CC(C)CC(C)O (centres undefined)	-90 °C
Clc1ccc2[nH]c(C(Cl)(Cl)Cl)nc2c1	223 to 229 °C
FC(F)(Br)C(F)(F)Br	-110 °C
O=c1oc2c3c4c(cc2c2c1CCC2)CCCN4CCC3	149 °C
COC(=O)c1cc([N+](=O)[O-])ccc1SC	130 to 132 °C
OCC1CC1	-60 °C
O=C(NC1CCCCC1)C(Br)(C(F)(F)F)C(F)(F)F	87 °C
CC1CC(C)(C)CC(OOC(C)(C)C)(OOC(C)(C)C)C1 (centres undefined)	-20 °C
Cl[Si](Cl)(Cl)CCC12CC3CC(CC(C3)C1)C2	36 °C
CCCOCC(=Nc1ccc(Cl)cc1C(F)(F)F)n1ccnc1	63.5 °C
C[C@@H](O)c1ccncc1	68 to 70 °C
C[C@]1(O)C#CCCCCC#C[C@](C)(O)CC1	144 °C
Nc1ccc(I)cc1Cl	73 to 75 °C
CC(N)C(O)c1cccc(O)c1 (centres undefined)	108 °C
O=P(O)(O)OC1C(O)C(O)C(O)C(O)C1O (centres undefined)	195 °C
CC(C)CC(C)(N)C(=O)O (racemic)	300 °C
O=C(O)COc1c(Cl)ccc(Cl)c1Cl	148 °C
CCCc1c(O)c(C(C)=O)cc(C(C)=O)c1O	99 to 100 °C
N#CCC[Si](Cl)(Cl)Cl	33 to 34 °C

SMILES	melting point
Cc1cc(Cc2cc(C)cc(C(C)(C)C)c2O)c(O)c(C(C)(C)C)c1	123 °C
O=C(O)/C=C/c1ccc(I)o1	145 °C
CN(C)C(CSC(N)=O)CSC(N)=O	188 °C
Cc1cc(C2(c3ccc(O)c(C)c3)CCCCC2)ccc1O	184 to 185 °C
Nc1cccnc1O	118 to 130 °C
C=C1C(=O)OC2C1CCC(C)C1C=CC(=O)C12C (centres undefined)	146 °C
CCCCO[Si](OCCCC)(OCCCC)OCCCC	-80 °C
CCCCC(CC)COC(=O)CCCCCCCCC(=O)OCC(CC)CCCC (centres undefined)	-48 °C
Cc1cc(CO)nn1C	50 to 51 °C
O=C1NCN(c2ccccc2)C12CCNCC2	183 to 185 °C
NC(=O)c1cc(Cl)ccc1Cl	160 °C
CN1CCN(c2ccc(CO)cc2)CC1	118 to 119 °C
Cc1nc(-c2cnccn2)sc1C(=O)Cl	101 °C
Fc1cccc(Br)n1	32 °C
CC1=C(O)C(=O)CC(C)(C)C1	89 °C
CCOC(=O)C(C#N)=c1sc(=C(C#N)C(=O)OCC)s1	159 to 162 °C
COc1cc(NCc2ccc3nc(N)nc(N)c3c2C)cc(OC)c1OC	216 °C
CCCCCCCCCCCO	19 °C
C1=CCCCC=C1	-110 °C
N#CCC(N)=S	113 to 119 °C
COc1cc(C=O)cc([N+](=O)[O-])c1O	176 °C
CNC(=O)Oc1ccccc1C1OCCO1	114 °C
CCCCC(C=O)CC (centres undefined)	-76 °C
Cn1c(S)nnc1Cc1nc(-c2cnccn2)no1	203 to 204 °C
FC(F)(F)c1cc(C(F)(F)F)c(C(F)(F)F)cc1C(F)(F)F	73 to 74 °C
Nc1cc(C(F)(F)F)cc(C(F)(F)F)c1Br	35 °C
O=Cc1cc(Cl)ccc1[N+](=O)[O-]	75 to 77 °C

SMILES	melting point
OCCSCCSCCO	64 to 68 °C
CC12CCC(O)CC1=CCC1C2CCC2(C)C1CCC2(O)C#CCl (centres undefined)	175 to 177 °C
CC1(C)OC2COC3(CO)OC(C)(C)OC3C2O1 (centres undefined)	95.5 to 97.5 °C
C[Si](C)(C)c1ccc([Si](C)(C)C)cc1	92 to 96 °C
CC1(C)CNC(=NN=C(C=Cc2ccc(C(F)(F)F)cc2)C=Cc2ccc(C(F)(F)F)cc2)NC1	188 °C
N#Cc1ccc(O)cc1F	125 °C
O=C1/C(=C\c2ccc(Cl)cc2)SC(=S)N1CN1CCOCC1	149 °C
COC(=O)C1=C(C(=O)OC)CC2=C(CC3=C(C2)CC(C(=O)OC)=C(C(=O)OC)C3)C1	260 to 262 °C
Cc1nc([N+](=O)[O-])c(Br)[nH]1	256 to 257 °C
CC1C=CCC1 (centres undefined)	-127 °C
N#Cc1c(Cl)c(Cl)c(Cl)c(C#N)c1Cl	252 °C
CC(C)NC(=S)NN	96 to 97 °C
COc1c(Cl)ccc(Cl)c1Cl	45 °C
CCCCCCCCCCCCCCCCC(CCC)c1ccccc1 (centres undefined)	31.4 °C
COc1cc(OC)nc(NC(=O)NS(=O)(=O)c2ncccc2C(F)(F)F)n1	180 °C
CCCCC(C(=O)O)C(=O)O	104 °C
C#CCNC(N)=O	130 to 131 °C
CC(C)(C)OC(=O)n1cccc1C=O	51 °C
CN(N)c1ccc(C(F)(F)F)cc1[N+](=O)[O-]	68 to 70 °C
Nc1cc(Cl)c([N+](=O)[O-])cc1Cl	155 °C
CCCCC(N)C(=O)O (centres undefined)	300 °C
Cc1ccc(NC(=O)C(C(F)(F)F)C(F)(F)F)cc1	196 °C
CC(C)(C)C(=O)CCl	-1 °C
CCCCCCCCc1ccc(O)cc1	45 °C
CCOC(=O)C=C1SC(N2CCCCC2)C(=O)N1CC (centres undefined)	86 °C
CCCCCCCCCCOC(=O)CCCCC(=O)OCCCCCCCC	-50 °C

The next lines start with the values.

melting point	SMILES
251 to 256 °C	N[C@@H](CCCCNC(=O)c1ccccc1)C(=O)O
181 °C	Cc1cc(C2(c3cc(C)c(O)c(CN(CC(=O)O)CC(=O)O)c3)OC(=O)c3ccccc32)cc(CN(CC(=O)O)CC(=O)O)c1O
162 °C	COc1ccc2c(c1)CCc1ccc3c(c1-2)c(=O)n(-c1ccccc1)n3C
181 °C	[O-][P+](c1ccccc1)(c1ccccc1)C1Sc2ccccc2S1
152 °C	O=C(O)C(Cc1ccc([N+](=O)[O-])cc1)c1ccccc1 (centres undefined)
90 to 92 °C	Cc1c(C(=O)Cl)cnn1-c1ccc(F)cc1
194 °C	CC(=O)N(c1onc(C)c1C)S(=O)(=O)c1ccc(N)cc1
62 °C	Brc1ccc(OCc2ccccc2)cc1
122 °C	CN(CCOc1ccc(CC2SC(=O)NC2=O)cc1)c1ccccn1 (centres undefined)
61 to 63 °C	COC(=O)[C@H](C)NC(=O)c1ccccc1
178 to 179 °C	Cc1ccc(C(=O)C=Cc2ccc(-c3ccc([N+](=O)[O-])cc3)o2)o1
90 °C	O=C(Oc1ccccn1)Oc1ccccn1
156 °C	O=C(O)COc1ccc2ccccc2c1
75.8 °C	OCc1cc(C(O)CNCCCCCCOCCCCc2ccccc2)ccc1O (centres undefined)
134 °C	C=C1[C@@H](c2ccccc2)[C@]2(Cl)C(=O)N(C)C(=O)[C@]12Cl
281 °C	COc1ccc(NC=C2C(=O)NN=C2c2c(O)c3ccccc3n(C)c2=O)cc1
194 °C	COc1cc(N)c(Cl)cc1C(=O)NC1CCN(Cc2ccccc2)CC1
101 °C	O=S(=O)(Cl)c1ccc(-c2cnco2)cc1
136 to 143 °C	CCOC(=O)c1cnc(NCc2ccccc2)s1
174 °C	c1ccc(CC2=NCCN2)cc1
59 °C	O=C(Cc1ccccc1)SSC(=O)Cc1ccccc1
45 °C	Clc1cccc2ncccc12
118 °C	CCOC(=O)/C=C/[C@@H]1[C@@H](c2ccccc2)N1C(=O)c1ccccc1
90 to 92 °C	O=[N+]([O-])c1cccnc1Oc1ccccc1F
290 °C	OC1NN(c2ccccc2)C(O)C1=Cc1ccc2c(c1)OCO2 (centres undefined)

melting point	SMILES
159 °C	COc1cc([N+](=O)[O-])c2ncccc2c1
102 to 103 °C	OCc1cn2ccccc2n1
214 to 215 °C	COc1cccc2cc(C(=NO)c3cc4cccc(OC)c4o3)oc12
201 °C	CCOC(=O)C1=C(N)Oc2ccc3ccccc3c2[C@H]1c1ccc(C)cc1
295 °C	Nc1c(O)cc(S(=O)(=O)O)c2ccccc12
42 to 46 °C	CCOC(=O)C1CCN(Cc2cccc(N)c2)CC1
38 to 44 °C	N#Cc1cccc(C(=O)Cl)c1
38 to 40 °C	O=S1(=O)c2cccc3cccc(c23)N1CCCCCl
114 to 116 °C	SC1=NNC(c2ccccn2)S1 (centres undefined)
285 °C	Cn1c(/C(C#N)=N/Nc2cccc(O)c2)nc2ccccc21
211 to 213 °C	COC(=O)C1=C(N)Oc2cc(C)n(CCc3ccccc3)c(=O)c2C1c1ccc(OC)cc1 (centres undefined)
167 °C	CC1OC(n2ccc(NC(=O)c3ccc(NC(=O)C(C)(N)CO)cc3)nc2=O)CCC1OC1OC(C)C(N(C)C)C(O)C1O (centres undefined)
69 °C	Cc1ccc(C(=O)/C=C/c2ccc(Br)o2)o1
123 to 125 °C	Cc1ccc2sc(C(=O)CBr)c(C)c2c1
169 °C	Cc1cc(O)c2ccccc2c1O
> 250 °C	CSC(=Nc1nnc(-c2ccc([N+](=O)[O-])cc2)s1)SC
40 °C	Cc1ccc(OCCCCBr)cc1
37 to 39 °C	COc1ccccc1C(C)O (racemic)
122 °C	CC(=O)C1=Cc2ccccc2C1
172 °C	CCOC(=O)C(C#N)=C1CC(SC)=C(C(=O)OCC)C(=N)N1c1ccc(OC)cc1
231 °C	Cc1cccc(Nc2ccccc2C(=O)O)c1C
101 °C	CN(C)c1ccc(C(O)c2ccc(N(C)C)cc2)cc1
165 °C	CN(C)c1ccc(N=c2cc(-c3ccccc3)sc(-c3ccccc3)c2)cc1
47 °C	OC(CCCc1ccccc1)c1ccccc1 (centres undefined)
